Test results reported in PMC10419416, “Fighting Pseudomonas aeruginosa Infections: Antibacterial and Antibiofilm Activity of D-Q53 CecB, a Synthetic Analog of a Silkworm Natural Cecropin B Variant” (International Journal of Molecular Sciences, 2023).
Where two headings read alike, the source gives them in different places. Non-standard residues stand in square brackets, D forms with d. Residues, ends and D or L forms follow the SMILES beside them. No end group written: not given here.

Legend:
[1] = test system: linearized DNA (pIVEX 2.3d plasmid); experiment: Gel retardation assay, in vitro interaction with DNA; type: binding; conditions: 100 ng DNA, 100-500 ng peptide, RT 1 h, 1% agarose gel; all tested conditions; three experiments
Method: One hundred ng of linearized DNA (pIVEX 2.3d plasmid) were incubated with increasing concentrations of the L- or D-peptides (0, 100, 150, 175, 200, 250, 275, 300, 350, 400, 450, 500 ng) at RT for 1 h. Samples were run into a 1% agarose gel in TAE buffer at 50 V and visualized in a Gel Doc X3+ (Biorad, Hercules, CA, USA). DNA band intensities were measured using the Image Lab software 6.1 (Biorad, Hercules, CA, USA). The band intensity reduction was calculated as the ratio between the band intensity in the presence of peptide over that of the untreated DNA. To compare the DNA binding activities of L- and D- peptides, for each peptide amount, we determined the ratio between the band intensity reduction with D-Q53 CecB and that with L-Q53 CecB. Three experiments have been performed.

in vitro = type: cell-based, human
Method: The peptide cytotoxicity against human cells was evaluated using CCD-34Lu-lung fibroblasts and A549-lung adenocarcinoma cells. Moreover, 6 × 10^3 cells in DMEM medium added with 10% FBS were seeded in 96-well sterile plates. After 24 h, cells were incubated with increasing concentrations of peptide (final concentrations of 5, 10, 25, 50, and 100 µM, with an additional concentration of 200 µM in CCD-34Lu) for 24 h at 37 °C (three replicates per condition). Cell viability was measured by removing the exhausted medium, adding 100 µL of DMEM and 20 µL of the MTS solution (Promega). Plates were incubated at 37 °C for 20 min until the complete conversion of the compound. The absorbance was measured at 492 nm using a microplate reader. Cell viability was calculated using the formula: Viability (%)=ODCecB−OD0/ODCtrl−OD0×100, where ODCecB is the OD in the presence of the peptide, ODCtrl is the OD of cells without the peptide, and OD0 is the background absorbance (wells with only medium and MTS compound). The experiment was performed at least twice.

trypsin = conditions: cited from earlier work
From the text: Recently, we characterized Q53 CecB, a natural CecB variant derived from the silkworm Bombyx mori. […] Additionally, Q53 CecB maintains an anti-Pseudomonas activity at a high saline concent ...

P. aeruginosa elastase = test system: T1, P. aeruginosa elastase; experiment: Enzymatic digestion with P. aeruginosa elastase, RP-HPLC; type: in vitro ADME; conditions: isolated enzyme elastase; peptide 1 mg/mL in 10 mM Tris-HCl pH 7.5, 20 U P. aeruginosa elastase, 37 °C, 30 min, RP-HPLC C18 peak integration; read-out: % of full-length peptide
T1 construct: purchased Elastin Products Company
Method: L- and D-Q53 CecB peptides, as well as the human LL-37 peptide (Merck, Burlington, MA, USA), were dissolved in 10 mM Tris-HCl, pH 7.5, at a final concentration of 1 mg/mL. Subsequently, 120 μL of each peptide solution were incubated at 37 °C with 20 U of human leukocyte elastase (Merck) or P. aeruginosa elastase (Elastin Products Company, Owensville, MO, USA) and 5 μL of 10 mM Tris-HCl, pH 7.5. At given time intervals (30, 60, 120, and 300 min), a volume corresponding to 30 μg of each peptide was diluted in 70 μL of 1% trifluoroacetic acid (TFA) to stop the reaction. Peptide suspensions,v without any enzyme (undigested controls), were processed in parallel. Each solution was analyzed by RP-HPLC, using a Phenomenex LC C18 analytical column (300 Å, […], 250 × 4.6 mm; Phenomenex, Torrance, CA, USA) and a Widepore C18 security guard cartridge (4 × 3.0 mm; Phenomenex, Torrance, CA, USA), in a 30 min-linear Acetonitrile (ACN) gradient (from 0% to 40% for L- and D-Q53 CecB peptides; from 20% to 60% for LL-37). A Waters Alliance 2695 Separations Module connected to a 996 PDA (Waters, Milford, MA, USA) was employed for RP-HPLC.

[2] = test system: P. aeruginosa PAO1-L strain; experiment: microbe, parasite or virus in culture; type: cell-based, Pseudomonas aeruginosa; conditions: value between parentheses, 24 h, 37 °C, plating on LBA
Method: (§1) The following strains were used: P. aeruginosa ATCC 27853, ATCC 25668, and PAO1-L (Lausanne subline). All strains were grown at 37 °C in Luria Bertani (LB) medium or in Luria Bertani Agar (LBA) plates.
(§2) The antibacterial activities of L- and D-Q53 CecB were evaluated by determining (i) the MIC and (ii) the MBC. Tobramycin (Merck) was used as an antibiotic control. (i) An overnight (ON) bacterial culture was diluted to 1 × 10^6 cells/mL in LB medium. 50 µL/well were seeded in sterile polypropylene 96-well plates (Corning, Corning, NY, USA) and added with 50 µL LB medium, containing serial dilutions of each compound (final concentrations of L- and D-Q53 CecB peptides from 1.1 to 35.2 µM; final concentrations of tobramycin from 0.26 to 17 μM; each condition in triplicate). Microbial suspensions in the growing medium (positive control) and wells with only the medium (negative controls) were processed in parallel. Plates were incubated 24 h at 37 °C with agitation (300 rpm), and the absorbance was measured at 600 nm in a microplate reader. The MIC was considered as the lowest concentration determining a delta optical density at 600 nm (ΔOD600) equal to 0 ± 0.05. The ΔOD600 was determined by subtracting the OD600 recorded at time 0 from that obtained after 24 h. Each experiment was performed at least three times. […] For each sample, 100 μL of 1:10, 1:100, and 1:1000 dilutions were plated on LBA plates, and colonies were counted after 24 h at 37 °C. […] Each experiment was performed at least twice.

[3] = test system: P. aeruginosa ATCC 25668, ATCC 27853, and PAO1-L strains; experiment: microbe, parasite or virus in culture; type: cell-based, Pseudomonas aeruginosa; conditions: LB medium, 24 h, 37 °C, OD600; same value for all three strains; triplicate, at least three experiments
Method: as §1, §2

Compound	ratio between the DNA band intensities for D- and L-Q53 CecB [1]	IC50 at 24 h (in vitro)	IC50 at 24 h (in vitro; human)	antibacterial activity after trypsin treatment (trypsin)	remaining at 0.5 h, 1 mg/mL (P. aeruginosa elastase)	MBC [2]	MIC [3]
CC[C@@H](C)[C@@H](NC(=O)[C@@H](C)NC(=O)[C@@H](CCCCN)NC(=O)[C@@H](C)NC(=O)[C@@H](CO)NC(=O)CNC(=O)[C@@H](CC(C)C)NC(=O)[C@H](NC(=O)[C@@H](CCC(N)=O)NC(=O)[C@H](NC(=O)[C@@H](C)NC(=O)[C@H]1CCCN1C(=O)CNC(=O)[C@@H](C)NC(=O)[C@@H](CCCCN)NC(=O)[C@H](NC(=O)[C@H](NC(=O)CNC(=O)[C@@H](CC(=O)O)NC(=O)[C@@H](CCCNC(=N)N)NC(=O)[C@H](NC(=O)[C@@H](CC(N)=O)NC(=O)[C@@H](CCCNC(=N)N)NC(=O)CNC(=O)[C@@H](CCSC)NC(=O)[C@@H](CCCCN)NC(=O)[C@@H](CCC(=O)O)NC(=O)[C@H](NC(=O)[C@@H](CCCCN)NC(=O)[C@@H](CCCCN)NC(=O)[C@@H](Cc1ccccc1)NC(=O)[C@H](NC(=O)[C@@H](CCCCN)NC(=O)[C@@H](Cc1c[nH]c2ccccc12)NC(=O)[C@H](N)CCCNC(=N)N)[C@H](C)CC)[C@H](C)CC)[C@H](C)CC)[C@H](C)CC)C(C)C)[C@H](C)CC)C(C)C)C(N)=O [D-Q53 CecB] (H-[dR][dW][dK][dI][dF][dK][dK][dI][dE][dK][dM]G[dR][dN][dI][dR][dD]G[dI][dV][dK][dA]G[dP][dA][dI][dQ][dV][dL]G[dS][dA][dK][dA][dI]-NH2; N-terminus and C-terminus assumed)	~ 1	72.6 ± 2.81 µM	68 ± 3.71 µM				
RWKIFKKIEKMGRNIRDGIVKAGPAIQVLGSAKAI-NH2 [L-Q53 CecB]				lost its antibacterial activity	~0.2%	4.40 µM	2.20 µM
